Source: patent EP2712863B1, “Novel inhibitors of bacterial biofilms and related methods” (Sequoia Sciences, Inc., priority 2012, dated 2014)
Values after ≈ are worked out from the molar mass of the structure shown.

What was measured:
P. aeruginosa = assay: Biofilm growth assay (spreading biofilm on semi-solid agar); type: cell-based; settings: Pseudomonas aeruginosa; Table 3; concentration that reduces the area of the spreading biofilm by >= 85%; read-out: P. aeruginosa
From the text: (§1) "Biofilm Growth Assay" refers to an assay performed on semi-solid agar surface where the bacteria collectively move out from an inoculation point. To those skilled in the art, the act of bacteria collectively moving out from an inoculation point on a semi-solid surface may be referred to as swarming or a spreading biofilm. (Anderson, et al Microbiology, 2003, 149, 37-46; Daniels, et al. FEMS Microbiology Reviews, 2004, 28, 261-289). The procedure to perform this assay is described in detail in the Examples. This type of surface motility by bacteria has been reported in the literature by those skilled in the art.
(§2) The biofilm growth assay was carried out to measure swarming or biofilm spreading on semi-solid agar media in round plates (for example, 100 × 15 mm), also referred to as Petri dishes. For E. coli, the plates contained LB medium with 0.6% agar and 0.5% glucose. P. aeruginosa plates were made with M8 agar supplemented with 0.2% glucose, 100 µM CaCl2, 1 mM MgSO4, and 0.5% Casamino acids. The agar plates of this assay consisted of 0.4% to 0.7% agar (Bacto or Noble agar), although other media may also be used as described in the literature and known to those skilled in the art. Test compounds at the desired concentration were added to the cooled, autoclaved media. Portions of the media were then poured into the plates (20 mL/plate), and the plates allowed to dry at room temperature for approximately 3 to 4 hours. Alternatively, however, plates may be dried in a laminar flow hood for approximately fifteen to twenty minutes. Overnight cultures were grown in a 37°C shaker in LB (E. coli) or TSB (P. aeruginosa). Plates were inoculated by placing 5 µL of the appropriate overnight culture in the centers of the plates. The plates then were incubated overnight at 37°C. The area of the zone of spreading bacteria was then measured and replicates are averaged. Percent inhibition was calculated as 100 × (area without compound - area with compound)/(area without compound). An active compound was considered that which reduces the area of the spreading biofilm compared to negative controls by greater than or equal to 85%. The values shown in Table 1 are the concentrations of compounds (µg/ml) tested in the biofilm growth assay that reduce the area of the spreading biofilm compared to negative controls by greater than or equal to 85% unless noted differently in Table 1. A > ("greater than" symbol) as used in Table 1 is well understood to those skilled in the art as an indication that the listed concentration was not effective at this concentration.
(§3) All of the compounds shown in Tables 2, 3, 4, and 5, below, were prepared semi-synthetically from oleanolic acid, except for Compounds 2 and 3. Compound 2 was prepared from ursolic acid. Compound 3 was prepared from hederagenin, but could also be prepared from an oleanolic acid analog with a hydroxyl at C23 or C24. These compounds were tested in the spreading biofilm assay according to the methods detailed in Example I, above. The values shown in Tables 2, 3, 4, and 5 are the concentrations of compounds tested in the biofilm growth assay that reduce the area of the spreading biofilm compared to negative controls by greater than or equal to 85%. Table 2. Compound 1 and its Analogs and their inhibitory concentrations in the biofilm growth assay as detailed in Example I, above

E. coli = assay: as above; type: cell-based; settings: Escherichia coli; Table 3; concentration that reduces the area of the spreading biofilm by >= 85%; read-out: E. coli
From the text: as §1, §2, §3

| Compound | IC85 (P. aeruginosa) [µg/mL] | IC85 (E. coli) [µg/mL] |
| --- | --- | --- |
| CC1(C)CC[C@]2(C(=O)O)CC[C@]3(C)C(=C(c4ccncc4)CC4[C@@]5(C)Cc6c(n[nH]c6N)C(C)(C)[C@@H]5CC[C@]43C)[C@@H]2C1 (stereo partly drawn) [Compound 29, (4aS,6aS,6bR,8aR,13aR,15bS)-12-Amino-2,2,6a,6b,9,9,13a-heptamethyl-15-(pyridin-4-yl)-2,3,4,4a,5,6,6a,6b,7,8,8a,9,11,13,13a,13b,14,15b-octadecahydro-1H-chryseno[1,2-f]indazole-4a-carboxylic acid] | 1 (≈ 1.75 µM) | 1 (≈ 1.75 µM) |
| CC1(C)CC[C@]2(C(=O)O)CC[C@]3(C)C(=C(c4cncnc4)CC4[C@@]5(C)Cc6c(n[nH]c6N)C(C)(C)[C@@H]5CC[C@]43C)[C@@H]2C1 (stereo partly drawn) [Compound 30, (4aS,6aS,6bR,8aR,13aR,15bS)-12-Amino-2,2,6a,6b,9,9,13a-heptamethyl-15-(pyrimidin-5-yl)-2,3,4,4a,5,6,6a,6b,7,8,8a,9,11,13,13a,13b,14,15b-octadecahydro-1H-chryseno[1,2-f]indazole-4a-carboxylic acid] | 2 (≈ 3.5 µM) | 1 (≈ 1.75 µM) |
| CC1(C)CC[C@]2(C(=O)O)CC[C@]3(C)C(=C(c4ccc(N)c(F)c4)CC4[C@@]5(C)Cc6c(n[nH]c6N)C(C)(C)C5CC[C@]43C)C2C1 (stereo partly drawn) [Compound 31, (4aS,6aS,6bR,13aR)-12-Amino-15-(4-amino-3-fluorophenyl)-2,2,6a,6b,9,9,13a-heptamethyl-2,3,4,4a,5,6,6a,6b,7,8,8a,9,11,13,13a,13b,14,15b-octadecahydro-1H-chryseno[1,2-f]indazole-4a-carboxylic acid] | 0.5 (≈ 0.829 µM) | 1 (≈ 1.66 µM) |
| CC1(C)CC[C@]2(C(=O)O)CC[C@]3(C)C(=C(c4ccoc4CN4CCOCC4)CC4[C@@]5(C)Cc6c(n[nH]c6N)C(C)(C)[C@@H]5CC[C@]43C)[C@@H]2C1 (stereo partly drawn) [Compound 32, (4aS,6aS,6bR,8aR,13aR,15bS)-12-Amino-2,2,6a,6b,9,9,13a-heptamethyl-15-(2-(morpholinomethyl)furan-3-yl)-2,3,4,4a,5,6,6a,6b,7,8,8a,9,11,13,13a,13b,14,15b-octadecahydro-1H-chryseno[1,2-f]indazole-4a-carboxylic acid] | 0.5 (≈ 0.759 µM) | 1 (≈ 1.52 µM) |
| CC1(C)CC[C@]2(C(=O)O)CC[C@]3(C)C(=C(c4c[nH]cc4CN4CCOCC4)CC4[C@@]5(C)Cc6c(n[nH]c6N)C(C)(C)[C@@H]5CC[C@]43C)[C@@H]2C1 (stereo partly drawn) [Compound 33, (4aS,6aS,6bR,8aR,13aR,15bS)-12-Amino-2,2,6a,6b,9,9,13a-heptamethyl-15-(4-(morpholinomethyl)-1H-pyrrol-3-yl)-2,3,4,4a,5,6,6a,6b,7,8,8a,9,11,13,13a,13b,14,15b-octadecahydro-1H-chryseno[1,2-f]indazole-4a-carboxylic acid] | 2 (≈ 3.04 µM) | 4 (≈ 6.08 µM) |
| CC1(C)CC[C@]2(C(=O)O)CC[C@]3(C)C(=C(c4ccsc4CN4CCOCC4)CC4[C@@]5(C)Cc6c(n[nH]c6N)C(C)(C)C5CC[C@]43C)C2C1 (stereo partly drawn) [Compound 34, (4aS,6aS,6bR,13aR)-12-Amino-2,2,6a,6b,9,9,13a-heptamethyl-15-(2-(morpholinomethyl)thiophen-3-yl)-2,3,4,4a,5,6,6a,6b,7,8,8a,9,11,13,13a,13b,14,15b-octadecahydro-1H-chryseno[1,2-f]indazole-4a-carboxylic acid] | 1 (≈ 1.48 µM) | 1 (≈ 1.48 µM) |
| CC1(C)CC[C@]2(C(=O)O)CC[C@]3(C)C(=C(c4ccoc4CN4CCNCC4)CC4[C@@]5(C)Cc6c(n[nH]c6N)C(C)(C)[C@@H]5CC[C@]43C)[C@@H]2C1 (stereo partly drawn) [Compound 35, (4aS,6aS,6bR,8aR,13aR,15bS)-12-Amino-2,2,6a,6b,9,9,13a-heptamethyl-15-(2-(piperazin-1-ylmethyl)furan-3-yl)-2,3,4,4a,5,6,6a,6b,7,8,8a,9,11,13,13a,13b,14,15b-octadecahydro-1H-chryseno[1,2-f]indazole-4a-carboxylic acid] | > 1 | 1 (≈ 1.52 µM) |
